#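 Grown in 96-well plates, cells were treated for 48 hours with each compound at five concentrations. Insufficient inhibition: endpoint recorded as highest concentration tested. GI50 marks 50% less growth.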 Active and inactive are the calls of the source. No stated cut-off is given here; in the data, active = GI50 up to about 1.1 µM and inactive = higher.
# Experiments:
# Experiment in all cases: inhibition of tumour cell growth, NCI panel, 48 h
# [1] = system: 786-0
# [2] = system: A549
# [3] = system: CAKI-1
# [4] = system: CCRF-CEM
# [5] = system: COLO 205
# [6] = system: DU-145
# [7] = system: EKVX
# [8] = system: HCC 2998
# [9] = system: HCT-15
# [10] = system: HL-60
# [11] = system: HOP-62
# [12] = system: HOP-92
# [13] = system: HT-29
# [14] = system: IGROV-1
# [15] = system: K562
# [16] = system: KM12
# [17] = system: LOX IMVI
# [18] = system: M14
# [19] = system: MCF7
# [20] = system: MDA-MB-231
# [21] = system: MDA-MB-435
# [22] = system: MDA-N
# [23] = system: MOLT-4
# [24] = system: Malme-3M
# [25] = system: NCI-H23
# [26] = system: OVCAR-4
# [27] = system: OVCAR-8
# [28] = system: PC-3
# [29] = system: RPMI-8226
# [30] = system: RXF 393
# [31] = system: SF-268
# [32] = system: SF-295
# [33] = system: SK-MEL-28
# [34] = system: SK-MEL-5
# [35] = system: SK-OV-3
# [36] = system: SN12C
# [37] = system: SNB-75
# [38] = system: SR
# [39] = system: SW-620
# [40] = system: T47D
# [41] = system: TK-10
# [42] = system: UACC-257
# [43] = system: UACC-62
# [44] = system: ACHN
# [45] = system: HCT-116
# [46] = system: Hs-578T
# [47] = system: NCI-H226
# [48] = system: NCI-H460
# [49] = system: NCI/ADR-RES
# [50] = system: OVCAR-3
# [51] = system: OVCAR-5
# [52] = system: SF-539
# [53] = system: SK-MEL-2
# [54] = system: SNB-19
# [55] = system: U-251
# [56] = system: UO-31
# [57] = system: A498
# [58] = system: NCI-H522
smiles,measurement,setting,value
COc1ccccc1Nc1nc2c([nH]1)c(=O)n(C)c(=O)n2C,GI50,[1],> 10 µM (inactive)
same,GI50,[2],> 10 µM (inactive)
same,GI50,[3],> 10 µM (inactive)
same,GI50,[4],> 10 µM (inactive)
same,GI50,[5],> 10 µM (inactive)
same,GI50,[6],> 10 µM (inactive)
same,GI50,[7],> 10 µM (inactive)
same,GI50,[8],> 10 µM (inactive)
same,GI50,[9],> 10 µM
same,GI50,[10],> 10 µM (inactive)
same,GI50,[11],> 10 µM (inactive)
same,GI50,[12],> 10 µM (inactive)
same,GI50,[13],> 10 µM (inactive)
same,GI50,[14],> 10 µM (inactive)
same,GI50,[15],> 10 µM (inactive)
same,GI50,[16],> 10 µM (inactive)
same,GI50,[17],> 10 µM (inactive)
same,GI50,[18],> 10 µM (inactive)
same,GI50,[19],> 10 µM (inactive)
same,GI50,[20],> 10 µM (inactive)
same,GI50,[21],> 10 µM (inactive)
same,GI50,[22],> 10 µM (inactive)
same,GI50,[23],> 10 µM (inactive)
same,GI50,[24],> 10 µM (inactive)
same,GI50,[25],> 10 µM (inactive)
same,GI50,[26],> 10 µM (inactive)
same,GI50,[27],> 10 µM (inactive)
same,GI50,[28],> 10 µM (inactive)
same,GI50,[29],> 10 µM (inactive)
same,GI50,[30],> 10 µM (inactive)
same,GI50,[31],> 10 µM (inactive)
same,GI50,[32],> 10 µM (inactive)
same,GI50,[33],> 10 µM (inactive)
same,GI50,[34],> 10 µM (inactive)
same,GI50,[35],> 10 µM (inactive)
same,GI50,[36],> 10 µM (inactive)
same,GI50,[37],> 10 µM (inactive)
same,GI50,[38],> 10 µM (inactive)
same,GI50,[39],> 10 µM (inactive)
same,GI50,[40],> 10 µM (inactive)
same,GI50,[41],> 10 µM (inactive)
same,GI50,[42],> 10 µM (inactive)
same,GI50,[43],> 10 µM (inactive)
CC1(C)N=C(/C(Cl)=[N+](/[O-])C(=O)c2ccc(Cl)cc2)C(C)(C)N1O,GI50,[2],> 100 µM (inactive)
same,GI50,[44],38.5 µM (inactive)
same,GI50,[3],19.2 µM (inactive)
same,GI50,[4],7.52 µM (inactive)
same,GI50,[5],17 µM (inactive)
same,GI50,[6],> 100 µM (inactive)
same,GI50,[7],> 100 µM (inactive)
same,GI50,[8],25.9 µM (inactive)
same,GI50,[45],16.3 µM (inactive)
same,GI50,[9],19.8 µM
same,GI50,[10],18.5 µM (inactive)
same,GI50,[11],39 µM (inactive)
same,GI50,[12],17.3 µM (inactive)
same,GI50,[13],22.1 µM (inactive)
same,GI50,[46],36.2 µM (inactive)
same,GI50,[14],41 µM (inactive)
same,GI50,[15],5.51 µM (inactive)
same,GI50,[16],45.3 µM (inactive)
same,GI50,[17],6.76 µM (inactive)
same,GI50,[18],18.2 µM (inactive)
same,GI50,[19],17.3 µM (inactive)
same,GI50,[20],21.8 µM (inactive)
same,GI50,[21],22.3 µM (inactive)
same,GI50,[22],17.1 µM (inactive)
same,GI50,[23],> 10 µM (inactive)
same,GI50,[24],17.7 µM (inactive)
same,GI50,[47],25.9 µM (inactive)
same,GI50,[25],22.1 µM (inactive)
same,GI50,[48],45.5 µM (inactive)
same,GI50,[49],25.9 µM (inactive)
same,GI50,[50],17.5 µM (inactive)
same,GI50,[26],26.4 µM (inactive)
same,GI50,[51],23.6 µM (inactive)
same,GI50,[27],20.4 µM (inactive)
same,GI50,[28],21.3 µM (inactive)
same,GI50,[29],26.5 µM (inactive)
same,GI50,[30],22 µM (inactive)
same,GI50,[31],29.4 µM (inactive)
same,GI50,[32],56 µM (inactive)
same,GI50,[52],21.3 µM (inactive)
same,GI50,[33],18.5 µM (inactive)
same,GI50,[53],52.7 µM (inactive)
same,GI50,[34],20 µM (inactive)
same,GI50,[35],> 100 µM (inactive)
same,GI50,[36],23.8 µM (inactive)
same,GI50,[54],> 100 µM (inactive)
same,GI50,[38],28.3 µM (inactive)
same,GI50,[39],20.3 µM (inactive)
same,GI50,[40],38.3 µM (inactive)
same,GI50,[41],19.8 µM (inactive)
same,GI50,[55],26.4 µM (inactive)
same,GI50,[42],18.2 µM (inactive)
same,GI50,[43],> 10 µM (inactive)
same,GI50,[56],> 100 µM (inactive)
OC(CCNCc1ccccc1)c1ccc2ccccc2c1 (stereo unspecified),GI50,[1],20.1 µM (inactive)
same,GI50,[57],19.4 µM (inactive)
same,GI50,[2],19 µM (inactive)
same,GI50,[44],18.3 µM (inactive)
same,GI50,[3],21.8 µM (inactive)
same,GI50,[4],1.68 µM (inactive)
same,GI50,[5],20.7 µM (inactive)
same,GI50,[6],18.3 µM (inactive)
same,GI50,[7],34.8 µM (inactive)
same,GI50,[8],36.2 µM (inactive)
same,GI50,[45],22.4 µM (inactive)
same,GI50,[9],20.5 µM
same,GI50,[10],19.5 µM (inactive)
same,GI50,[11],19.3 µM (inactive)
same,GI50,[13],22.9 µM (inactive)
same,GI50,[46],20.6 µM (inactive)
same,GI50,[14],16 µM (inactive)
same,GI50,[15],21.6 µM (inactive)
same,GI50,[16],17 µM (inactive)
same,GI50,[17],13.5 µM (inactive)
same,GI50,[18],36.1 µM (inactive)
same,GI50,[19],24.9 µM (inactive)
same,GI50,[20],17.4 µM (inactive)
same,GI50,[21],23 µM (inactive)
same,GI50,[23],31.1 µM (inactive)
same,GI50,[24],22 µM (inactive)
same,GI50,[47],23.8 µM (inactive)
same,GI50,[25],30 µM (inactive)
same,GI50,[48],17.3 µM (inactive)
same,GI50,[58],18.7 µM (inactive)
same,GI50,[49],24.7 µM (inactive)
same,GI50,[50],13.3 µM (inactive)
same,GI50,[26],28.4 µM (inactive)
same,GI50,[51],30.7 µM (inactive)
same,GI50,[27],23.3 µM (inactive)
same,GI50,[28],20.3 µM (inactive)
same,GI50,[29],23.8 µM (inactive)
same,GI50,[30],16.7 µM (inactive)
same,GI50,[31],18.9 µM (inactive)
same,GI50,[32],33 µM (inactive)
same,GI50,[52],16.9 µM (inactive)
same,GI50,[33],18.4 µM (inactive)
same,GI50,[53],20.5 µM (inactive)
same,GI50,[34],17.2 µM (inactive)
same,GI50,[36],29.1 µM (inactive)
same,GI50,[54],23.7 µM (inactive)
same,GI50,[37],28.2 µM (inactive)
same,GI50,[38],35.6 µM (inactive)
same,GI50,[39],19.7 µM (inactive)
same,GI50,[40],24 µM (inactive)
same,GI50,[41],18.3 µM (inactive)
same,GI50,[55],16.9 µM (inactive)
same,GI50,[42],18 µM (inactive)
same,GI50,[43],19.3 µM (inactive)
same,GI50,[56],16 µM (inactive)
N=C(N)c1ccc(OCCCCCOc2ccc(C(=N)N)cc2)cc1 [PENTAMIDINE],GI50,[1],13.7 µM (inactive)
same,GI50,[2],11 µM (inactive)
same,GI50,[44],23.6 µM (inactive)
same,GI50,[3],57 µM (inactive)
same,GI50,[6],13.2 µM (inactive)
same,GI50,[7],19.1 µM (inactive)
same,GI50,[8],12.2 µM (inactive)
same,GI50,[45],22.4 µM (inactive)
same,GI50,[9],24.8 µM
same,GI50,[10],19.3 µM (inactive)
same,GI50,[11],14.9 µM (inactive)
same,GI50,[12],28.5 µM (inactive)
same,GI50,[46],14.9 µM (inactive)
same,GI50,[15],3.45 µM (inactive)
same,GI50,[17],16.1 µM (inactive)
same,GI50,[18],15.5 µM (inactive)
same,GI50,[19],9.55 µM (inactive)
same,GI50,[20],16.7 µM (inactive)
same,GI50,[21],16.6 µM (inactive)
same,GI50,[22],15.6 µM (inactive)
same,GI50,[25],10.4 µM (inactive)
same,GI50,[48],2.98 µM (inactive)
same,GI50,[49],71.6 µM (inactive)
same,GI50,[50],14.3 µM (inactive)
same,GI50,[26],10.9 µM (inactive)
same,GI50,[51],21 µM (inactive)
same,GI50,[27],13.7 µM (inactive)
same,GI50,[28],18.5 µM (inactive)
same,GI50,[30],16.7 µM (inactive)
same,GI50,[31],17.2 µM (inactive)
same,GI50,[52],12.6 µM (inactive)
same,GI50,[33],14.7 µM (inactive)
same,GI50,[53],9.06 µM (inactive)
same,GI50,[36],6.55 µM (inactive)
same,GI50,[54],10.7 µM (inactive)
same,GI50,[40],7.76 µM (inactive)
same,GI50,[41],18.9 µM (inactive)
same,GI50,[55],8.26 µM (inactive)
same,GI50,[43],12.2 µM (inactive)

# Reference: ChEMBL document CHEMBL1201862, “PubChem BioAssay data set” (2004)
